Among the data in patent publication US20250051338A1, “TYK2 DEGRADERS AND USES THEREOF” (Kymera Therapeutics, Inc., priority 2021, published 2025) are DC50 values, retold here.

Format in all cases: cell-based
The target in test [1] is T1, TYK2 (Homo sapiens, UniProt P29597). The experiment in a line: TYK2 degradation MSD assay in human PBMC cells. More on the design: endogenous in cells; host or cells: human PBMC. The conditions noted are these: 4 to 24 hours incubation, read-out: TYK2 MSD DC50 rating in human PBMC. Put shortly: (§1)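 MSD electrochemiluminescence readout of residual TYK2 in RIPA lysates after 4–24 h compound exposure at 37° C. Dosing: 9 concentrations, 1:3 steps, top 1 to 10 μM. DC50 fitted by four-parameter inhibitor vs. response regression.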
T1 sequence (P29597 whole entry): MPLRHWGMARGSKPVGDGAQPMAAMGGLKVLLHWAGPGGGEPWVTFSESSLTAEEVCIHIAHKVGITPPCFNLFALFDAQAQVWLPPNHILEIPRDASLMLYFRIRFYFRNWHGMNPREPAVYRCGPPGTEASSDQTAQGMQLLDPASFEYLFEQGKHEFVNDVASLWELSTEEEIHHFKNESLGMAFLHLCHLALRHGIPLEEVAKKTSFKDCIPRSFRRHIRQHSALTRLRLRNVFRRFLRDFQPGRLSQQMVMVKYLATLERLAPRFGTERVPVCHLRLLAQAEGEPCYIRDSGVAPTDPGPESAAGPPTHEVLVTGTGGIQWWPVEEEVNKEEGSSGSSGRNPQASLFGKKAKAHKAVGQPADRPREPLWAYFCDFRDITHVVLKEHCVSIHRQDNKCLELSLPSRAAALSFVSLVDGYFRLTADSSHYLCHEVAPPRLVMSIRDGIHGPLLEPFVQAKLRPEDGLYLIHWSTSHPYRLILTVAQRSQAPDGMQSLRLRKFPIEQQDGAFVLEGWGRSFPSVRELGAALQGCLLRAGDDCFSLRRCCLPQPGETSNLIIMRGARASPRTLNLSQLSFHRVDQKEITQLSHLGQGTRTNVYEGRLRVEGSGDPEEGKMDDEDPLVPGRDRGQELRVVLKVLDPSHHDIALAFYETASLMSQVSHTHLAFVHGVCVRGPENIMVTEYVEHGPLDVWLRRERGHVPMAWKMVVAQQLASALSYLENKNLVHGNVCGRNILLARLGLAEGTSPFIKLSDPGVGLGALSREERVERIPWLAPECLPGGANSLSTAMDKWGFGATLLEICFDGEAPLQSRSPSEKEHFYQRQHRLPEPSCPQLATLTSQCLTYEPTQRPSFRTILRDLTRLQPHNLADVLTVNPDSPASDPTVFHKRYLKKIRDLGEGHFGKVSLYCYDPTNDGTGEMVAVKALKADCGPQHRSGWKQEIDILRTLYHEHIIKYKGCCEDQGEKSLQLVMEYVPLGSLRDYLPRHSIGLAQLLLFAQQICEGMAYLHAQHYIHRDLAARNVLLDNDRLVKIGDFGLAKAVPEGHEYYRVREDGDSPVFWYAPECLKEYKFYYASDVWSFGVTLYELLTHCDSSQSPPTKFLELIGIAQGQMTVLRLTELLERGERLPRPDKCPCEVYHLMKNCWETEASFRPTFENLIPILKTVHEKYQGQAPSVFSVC

Test [2] has as its target T1, TYK2. The test can be described thus: TYK2 degradation MSD assay in EBV-B cells. The following applies: 4 to 24 hours incubation, read-out: TYK2 MSD DC50 rating in EBV-B. More on the design: endogenous in cells; host or cells: EBV-B cells. Put shortly:
as §1

Test [3] has as its target T1, TYK2. The experiment in a line: TYK2 degradation MSD assay in OCI-LY10 cells. More on the design: endogenous in cells; host or cells: EBV-B cells. The following applies: 4 to 24 hours incubation, read-out: TYK2 MSD DC50 rating in OCI-LY10. The essentials: as §1

`CNc1cc(Nc2cccc(CN3CCCC4(C3)CN(c3ncc(C#Cc5ccc6c(c5)n(C)c(=O)n6C5CCC(=O)NC5=O)cn3)C4)c2)nn2c(C(=O)NC3CC3)cnc12` (stereo not drawn) [Example K608]: the DC50 (as a rule, the concentration at which degradation of the target reaches its halfway point) was over 100 nM at TYK2 [1], over 100 nM on TYK2 [2] and 1 to 10 nM on TYK2 [3].

Turning to `CNc1cc(N2CCc3c(-c4ccc(CN5CCC6(CC5)CCN(c5ccc(-c7ccc8c(c7)n(C)c(=O)n8C7CCC(=O)NC7=O)cc5)CC6)cn4)cccc32)nn2c(C(=O)N[C@@H]3C[C@@H]3F)cnc12` (stereo partly drawn) [Example K609], the figures for the DC50 on TYK2 [1], at TYK2 [2] and on TYK2 [3] were over 100 nM, over 100 nM and 1 to 10 nM, respectively.

Take `CNc1cc(Nc2cccc(CN3CC4(C3)CN(c3ccc(-c5ccc6c(c5)n(C)c(=O)n6C5CCC(=O)NC5=O)cc3)C4)c2OC)nn2c(C(=O)N[C@@H]3C[C@@H]3F)cnc12` (stereo partly drawn) [Example K610]: the DC50 at TYK2 [1], at TYK2 [2] and on TYK2 [3] was over 100 nM in each case.

Take `CNc1cc(Nc2cccc(-c3ccc(CN4CCN(c5ccc(-c6ccc7c(c6)n(C)c(=O)n7C6CCC(=O)NC6=O)cc5)CC4)cn3)c2C(F)F)nn2c(C(=O)N[C@@H]3C[C@@H]3F)cnc12` (stereo partly drawn) [Example K611]: the DC50 was over 100 nM at TYK2 [1], over 100 nM at TYK2 [2] and 1 to 10 nM at TYK2 [3].

Regarding `CNc1cc(Nc2cccc(CN3CCN(CCc4ccc5c(c4)n(C)c(=O)n5C4CCC(=O)NC4=O)CC3)c2)nn2c(C(=O)NC3CC3)cnc12` (stereo not drawn) [Example K612], the DC50 is over 100 nM on TYK2 [1], over 100 nM at TYK2 [2] and 10 to 100 nM on TYK2 [3].

As for `CNc1cc(Nc2cccc(CN3CCN(CCc4ccc5c(c4)n(C)c(=O)n5C4CCC(=O)NC4=O)CC3)c2)nn2c(C(=O)NC3CC3)cnc12` (stereo not drawn) [Example K613], the DC50 on TYK2 [1] was over 100 nM; at TYK2 [2] it was over 100 nM; on TYK2 [3], 1 to 10 nM.

As for `CNc1cc(Nc2cccc(CN3CC4(CCN(c5ccc6c(c5)n(C)c(=O)n6C5CCC(=O)NC5=O)CC4)C3)c2)nn2c(C(=O)NC3CC3)cnc12` (stereo not drawn) [Example K614], the DC50 on TYK2 [1], on TYK2 [2] and on TYK2 [3] was over 100 nM in each case.

As for `CNc1cc(Nc2cccc(-c3ccc(CN4CCN(c5ccc(-c6ccc7c(c6)n(C)c(=O)n7C6CCC(=O)NC6=O)cc5)CC4)cn3)c2OC)nn2ccnc12` (stereo not drawn) [Example K615], the DC50 at TYK2 [1], at TYK2 [2] and on TYK2 [3] was over 100 nM throughout.

Take `CNc1cc(N2CCc3c(-c4ccc(C(=O)N5CCN([C@H]6CC[C@H](c7ccc(-c8ccc9c(c8)n(C)c(=O)n9C8CCC(=O)NC8=O)cc7)CC6)CC5)cn4)cccc32)nn2c(C(=O)N[C@@H]3C[C@@H]3F)cnc12` (stereo partly drawn) [Example K616]: the DC50 at TYK2 [1] was over 100 nM; on TYK2 [2], over 100 nM; on TYK2 [3] it was 1 to 10 nM.

For `CNc1cc(Nc2cccc(-c3ccc(C(=O)N4CCN(C5CCC(c6ccc(-c7ccc8c(c7)n(C)c(=O)n8C7CCC(=O)NC7=O)cc6)CC5)CC4)cn3)c2OC)nn2c(C(=O)N[C@@H]3C[C@@H]3F)cnc12` (stereo partly drawn) [Example K617], the DC50 is over 100 nM at TYK2 [1], over 100 nM on TYK2 [2] and under 1 nM at TYK2 [3].

Regarding `CNc1cc(Nc2cccn(-c3ccc(C(=O)NCCOCCOCCOCCOCCNc4cncc(N5CCCC(C(=O)Nc6ccc(=O)n(CC(=O)OC)c6)C5)c4)cn3)c2=O)nn2c(C(=O)N[C@@H]3C[C@@H]3F)cnc12` (stereo partly drawn) [Example K618], the half-maximal degradation concentration (DC50) on TYK2 [1], at TYK2 [2] and at TYK2 [3] was over 100 nM each time.

Take `CNc1cc(Nc2cccc(N3CCC(CN4CCN(c5ccc(-c6ccc7c(c6)n(C)c(=O)n7C6CCC(=O)NC6=O)cc5)CC4)CC3)c2OC)nn2c(C(=O)N[C@@H]3C[C@@H]3F)cnc12` (stereo partly drawn) [Example K619]: the DC50 is over 100 nM at TYK2 [1], over 100 nM at TYK2 [2] and 1 to 10 nM at TYK2 [3].

For `CNc1cc(N2CCN(c3ccc(CN4CCN(c5ccc(-c6ccc7c(c6)n(C)c(=O)n7C6CCC(=O)NC6=O)cc5)CC4)cc3)CC2)nn2c(C(=O)N[C@@H]3C[C@@H]3F)cnc12` (stereo partly drawn) [Example K620], the DC50 on TYK2 [1], at TYK2 [2] and on TYK2 [3] was over 100 nM in each case.

Regarding `CNc1cc(Nc2cccc(C3CCC(CN4CCN(c5ccc(-c6ccc7c(c6)n(C)c(=O)n7C6CCC(=O)NC6=O)cc5)CC4)CC3)c2OC)nn2c(C(=O)N[C@@H]3C[C@@H]3F)cnc12` (stereo partly drawn) [Example K621], the DC50 at TYK2 [1] is over 100 nM; on TYK2 [2], over 100 nM; at TYK2 [3] it was 1 to 10 nM.

With `CNc1cc(Nc2cccc(N3CCC(CN4CCC(c5ccc(-c6ccc7c(c6)n(C)c(=O)n7C6CCC(=O)NC6=O)cc5)CC4)CC3)c2OC)nn2c(C(=O)N[C@@H]3C[C@@H]3F)cnc12` (stereo partly drawn) [Example K622], the 50% degradation concentration (DC50) at TYK2 [1] was over 100 nM; on TYK2 [2], over 100 nM; at TYK2 [3], under 1 nM.

As to `CNc1cc(Nc2cccc(N3CCC(CN4CC5(C4)CN(c4ccc(-c6ccc7c(c6)n(C)c(=O)n7C6CCC(=O)NC6=O)cc4)C5)CC3)c2OC)nn2c(C(=O)N[C@@H]3C[C@@H]3F)cnc12` (stereo partly drawn) [Example K623], the DC50 at TYK2 [1] was over 100 nM; on TYK2 [2] it was over 100 nM; on TYK2 [3], under 1 nM.

Regarding `CNc1cc(N2CCc3c(-c4ccc(CN5CCC6(CC5)CCN(C(=O)c5cccc(N7CCC(=O)NC7=O)c5)CC6)cn4)cccc32)nn2c(C(=O)N[C@@H]3C[C@@H]3F)cnc12` [Example K625], the DC50 on TYK2 [1] is over 100 nM; at TYK2 [2], over 100 nM; on TYK2 [3], under 1 nM.

On to `CNc1cc(N2CCc3c(-c4ccc(C(=O)N5CCC(CN6CCN(c7ccc(-c8ccc9c(c8)n(C)c(=O)n9C8CCC(=O)NC8=O)cc7)CC6)CC5)cn4)cccc32)nn2c(C(=O)N[C@@H]3C[C@@H]3F)cnc12` (stereo partly drawn) [Example K627], for which the values for the DC50 at TYK2 [1], on TYK2 [2] and on TYK2 [3] were over 100 nM, over 100 nM and under 1 nM, respectively.

Turning to `CNc1cc(Nc2cccc(-c3ccc(C(=O)N4CCN(CC5CCN(c6ccc(-c7ccc8c(c7)n(C)c(=O)n8C7CCC(=O)NC7=O)cc6)CC5)CC4)cn3)c2OC)nn2c(C(=O)N[C@@H]3C[C@@H]3F)cnc12` (stereo partly drawn) [Example K628], the results for the DC50 at TYK2 [1], at TYK2 [2] and on TYK2 [3] were over 100 nM, over 100 nM and 1 to 10 nM, respectively.

Consider `CNc1cc(Nc2cccc(-c3ccc(C(=O)N4CCC(CN5CCN(c6ccc(-c7ccc8c(c7)n(C)c(=O)n8C7CCC(=O)NC7=O)cc6)CC5)CC4)cn3)c2OC)nn2c(C(=O)N[C@@H]3C[C@@H]3F)cnc12` (stereo partly drawn) [Example K629], for which the DC50 on TYK2 [1] is over 100 nM; on TYK2 [2] it was over 100 nM; at TYK2 [3], under 1 nM.

Consider `CNc1cc(Nc2cccc(-c3ccc(CN4CCN(c5ccc(-c6ccc7c(c6)n(C)c(=O)n7C6CCC(=O)NC6=O)cc5)CC4)cn3)c2OC)nn2c(-c3cn(C(C)C)nn3)cnc12` (stereo not drawn) [Example K630], for which the DC50 on TYK2 [1] is over 100 nM; at TYK2 [2], over 100 nM; on TYK2 [3], 1 to 10 nM.

Regarding `CNc1cc(N2CCc3c(-c4ccc(CN5CCN(c6ccc(-c7ccc8c(c7)n(C)c(=O)n8C7CCC(=O)NC7=O)cc6)CC5)cn4)cccc32)nn2c(-c3cn(C(C)C)nn3)cnc12` (stereo not drawn) [Example K631], the DC50 is over 100 nM on TYK2 [1], over 100 nM on TYK2 [2] and 1 to 10 nM at TYK2 [3].

For `CNc1cc(Nc2cccc(-c3ccc(C(=O)N4CCN([C@H]5CC[C@H](c6ccc(-c7ccc8c(c7)n(C)c(=O)n8C7CCC(=O)NC7=O)cc6)CC5)CC4)cn3)c2)nn2c(C(=O)N[C@@H]3C[C@@H]3F)cnc12` (stereo partly drawn) [Example K632], the DC50 is over 100 nM at TYK2 [1], over 100 nM on TYK2 [2] and under 1 nM on TYK2 [3].

Take `CNc1cc(Nc2cccc(-c3ccc(C(=O)N4CCN(c5ccc(-c6ccc7c(c6)n(C)c(=O)n7C6CCC(=O)NC6=O)cc5)CC4)cn3)c2)nn2c(C(=O)N[C@@H]3C[C@@H]3F)cnc12` (stereo partly drawn) [Example K633]: the DC50 was over 100 nM on TYK2 [1], over 100 nM at TYK2 [2] and under 1 nM at TYK2 [3].

Take `CNc1cc(N2CCc3c(CN4CCC(CN5CCN(c6ccc7c(c6)n(C)c(=O)n7C6CCC(=O)NC6=O)CC5)CC4)cccc32)nn2c(C(=O)N[C@@H]3C[C@@H]3F)cnc12` (stereo partly drawn) [Example K634]: the DC50 is over 100 nM at TYK2 [1], over 100 nM on TYK2 [2] and under 1 nM at TYK2 [3].

With `CNc1cc(N2CCc3c(N4CCC(CN5CCC(C#Cc6cccc7c6n(C)c(=O)n7C6CCC(=O)NC6=O)CC5)CC4)cccc32)nn2c(C(=O)N[C@@H]3C[C@@H]3F)cnc12` (stereo partly drawn) [Example K635], the DC50 is over 100 nM on TYK2 [1], over 100 nM on TYK2 [2] and 1 to 10 nM on TYK2 [3].

Take `CNc1cc(N2CCc3c(-c4ccc(CN5CCN(c6cccc7c6n(C)c(=O)n7C6CCC(=O)NC6=O)CC5)cn4)cccc32)nn2c(C(=O)N[C@@H]3C[C@@H]3F)cnc12` (stereo partly drawn) [Example K637]: the DC50 at TYK2 [1] was over 100 nM; on TYK2 [2], over 100 nM; at TYK2 [3] it was 1 to 10 nM.

Consider `CNc1cc(N2CCc3c(N4CCC(CN5CCN(c6ccc7c(c6)n(C)c(=O)n7C6CCC(=O)NC6=O)CC5)CC4)cccc32)nn2c(C(=O)N[C@@H]3C[C@@H]3F)cnc12` (stereo partly drawn) [Example K638], for which the 50% degradation concentration (DC50) at TYK2 [1] is over 100 nM; on TYK2 [2], over 100 nM; at TYK2 [3] it was under 1 nM.

On to `CNc1cc(Nc2cccc(C3CCN(CCc4cccc5c4n(C)c(=O)n5C4CCC(=O)NC4=O)CC3)c2)nn2c(C(=O)N[C@@H]3C[C@@H]3F)cnc12` (stereo partly drawn) [Example K641], for which the DC50 on TYK2 [1], on TYK2 [2] and on TYK2 [3] was over 100 nM each time.

Regarding `Cn1c(=O)n(C2CCC(=O)NC2=O)c2ccc(-c3ccc(N4CCN(Cc5ccc(-c6cccc(Nc7nn8c(C(=O)N[C@@H]9C[C@@H]9F)cnc8c8c7OCCN8)c6Cl)nc5)CC4)cc3)cc21` (stereo partly drawn) [Example K642], the DC50 was over 100 nM on TYK2 [1], over 100 nM on TYK2 [2] and 1 to 10 nM at TYK2 [3].
